Reference: patent US20130131008A1, “LIPOPHILIC MONOPHOSPHORYLATED DERIVATIVES AND NANOPARTICLES” (BOARD OF REGENTS, THE UNIVERSITY OF TEXAS SYSTEM, priority 2011, published 2013)
Where two headings read alike, the source gives them in different places.

How the values were obtained:
CCRF-CEM cells = experiment: In vitro cytotoxicity assay (MTT), 72 h; assay type: cell-based, human; details: Homo sapiens, CCRF-CEM, 72 h incubation
Description: (§1) Human leukemia cell line CCRF-CEM (CCL-119), human pancreatic cancer cell lines PANC-1 (CRL-1469), MIA PaCa-2 (CRL-1420), and BxPC-3 (CRL-1687), human breast adenocarcinoma cell line MCF-7 (HTB-22), and mouse lung cancer cell line TC-1 (CRL-2785) were from the American Type Culture Collection (Rockville, Md.). CCRF-CEM-AraC-8C cells (hENT1 deficient) and CCRF-CEM/dCK^−/− cells (dCK deficient) were kindly provided by Dr. Buddy Ullmann (Oregon Health & Science University, Portland, Oreg.) and Dr. Margaret Black (Washington State University, Pullman, Wash.), respectively. L1210 wt and L1210 10K were kindly supplied by Dr. Lars Petter Jordheim (Université Claude Bernard Lyon I, Lyon, France). TC-1-GR cells were previously developed in our lab. CCRF-CEM, CCRF-CEM-AraC-8C, CCRF-CEM/dCK^−/−, L1210 wt, L1210 10K, TC-1, and TC-1-GR cells were cultured in RPMI 1640 medium. MCF-7 and PANC-1 cells were cultured in Dulbecco's modified Eagle medium (DMEM), MIA PaCa-2 cells were cultured in DMEM medium with 2.5% horse serum. All media were supplemented with 10% fetal bovine serum (FBS), 100 U/mL of penicillin, and 100 μg/mL of streptomycin (all from Invitrogen, Carlsbad, Calif.).
(§2) Cells (5,000/well) were seeded in 96-well plates. After overnight incubation, they were treated with various concentrations of gemcitabine HCl, gemcitabine derivatives, or gemcitabine derivatives in nanoparticles at 37° C., 5% CO2. TC-1 and TC-1-GR cells were incubated for 48 h. CCRF-CEM, CCRF-CEM-AraC-8C, CCRF-CEM/dCK^−/−, L1210 wt, L1210 10K, and MCF-7 cells were incubated for 72 h, and MIA PaCa-2 and PANC-1 for 96 h. Gemcitabine HCl was dissolved in phosphate-buffered saline (PBS), and gemcitabine derivatives were dissolved in dimethyl sulfoxide (DMSO). […] The number of viable cells after the incubation was determined using an MTT assay. Briefly, 3-(4,5-dimethylthiazol-2-yl)-2,5-diphenyltetrazolium bromide (20 μl, 5 mg/mL) was added in each well and incubated for 3 h. Formazan crystals were solubilized with acidified isopropanol (150 μl) (for CCRF-CEM, CCRF-CEM-AraC-8C, CCRF-CEM/dCK^−/−, L1210 wt, and L1210 10K cells) or DMSO (150 μl) (for TC-1, TC-1-GR, MCF-7, PANC-1, and MIA PaCa-2). Absorbance was measured using a BioTek Synergy™ HT Multi-Mode Microplate Reader (BioTek Instruments, Winooski, Vt.) at 570 nm and 630 nm. The fraction of affected (dead) cells (Fa) and the fraction of unaffected (live) cells (Fu) at every dose were calculated, and the Log(Fa/Fu) values were plotted against the Log(concentration of gemcitabine). IC50 was the dose at Log(Fa/Fu)=0, See e.g., Chou, T. C. & Talalay, P., 1984, Adv. Enzyme Regul. 22:27-55. The experiment was repeated at least three times.

PANC-1 cells [1] = experiment: In vitro cytotoxicity assay (MTT), 96 h, RRM2 over-expressing cells; assay type: cell-based, human; details: for Ratio of IC50 in PANC-1 to that in MIA PaCa-2: HCl
Description: as §1, §2

TC-1-GR cells = experiment: cells; assay type: cell-based
Description: as §1, §2

TC-1-GR tumors = details: mice with pre-established TC-1-GR tumors; cited from earlier work
PANC-1 cells [2] = details: literature value; read-out: IC50 in PANC-1 cells reported by Duxbury et al.; cited from earlier work
MIA PaCa-2 cells = details: literature value; read-out: IC50 in MIA PaCa-2 cells reported by Duxbury et al.; cited from earlier work
TC-1 cells = experiment: In vitro cytotoxicity assay (MTT), 48 h; assay type: cell-based; details: Mus musculus, TC-1, 48 h incubation
Description: as §1, §2

CCRF-CEM/dCK−/− cells = experiment: In vitro cytotoxicity assay (MTT), 72 h, dCK deficient cells; assay type: cell-based, human
Description: as §1
(§3) Cells (5,000/well) were seeded in 96-well plates. After overnight incubation, they were treated with various concentrations of gemcitabine HCl, gemcitabine derivatives, or gemcitabine derivatives in nanoparticles at 37° C., 5% CO2. TC-1 and TC-1-GR cells were incubated for 48 h. CCRF-CEM, CCRF-CEM-AraC-8C, CCRF-CEM/dCK^−/−, L1210 wt, L1210 10K, and MCF-7 cells were incubated for 72 h, and MIA PaCa-2 and PANC-1 for 96 h. […] The number of viable cells after the incubation was determined using an MTT assay. […] Absorbance was measured using a BioTek Synergy™ HT Multi-Mode Microplate Reader (BioTek Instruments, Winooski, Vt.) at 570 nm and 630 nm. The fraction of affected (dead) cells (Fa) and the fraction of unaffected (live) cells (Fu) at every dose were calculated, and the Log(Fa/Fu) values were plotted against the Log(concentration of gemcitabine). […]

L1210 10K cells = experiment: as above; assay type: cell-based, murine
Description: as §1, §3

PANC-1 cells [3] = experiment: Trypan blue exclusion assay of cell viability; assay type: cell-based, human; details: 400 μM
Description: Cell viability was determined using a trypan blue exclusion assay. Data shown are mean±S.D. (S.D.: standard deviation) (n=3). Experiment was repeated twice.

Cl.Nc1ccn([C@@H]2O[C@H](CO)[C@@H](O)C2(F)F)c(=O)n1 [Gemcitabine HCl, 2′,2′-difluorodeoxycytidine HCl, reference compound]
IC50 (CCRF-CEM cells): 0.0029 ± 0.0018 µM
Ratio of IC50 in PANC-1 to that in MIA PaCa-2 (PANC-1 cells [1]): >8,000
IC50 (PANC-1 cells [1]; Homo sapiens, PANC-1, MTT, 96 h incubation, RRM2 over-expressing): > 400 µM
PANC-1 cells still alive (PANC-1 cells [1]; after 96 h of incubation with 400 μM): more than 50%
Ratio of IC50 in PANC-1 to that in MIA PaCa-2 (PANC-1 cells [1]; listed as gemcitabine HCl): more than 8,000
Ratio of IC50 in TC-1-GR to that in TC-1 (TC-1-GR cells): 2,497
Ratio of IC50 values in TC-1-GR cells (TC-1-GR cells; IC50 of gemcitabine HCl divided by that of the derivatives or derivatives in nanoparticles): 1
IC50 (TC-1-GR cells; Mus musculus, MTT, 48 h incubation, RRM1 over-expressing): 36.7 ± 5.1 µM
TC-1-GR tumor growth in mice (previous study) (TC-1-GR tumors): did not show any significant anti-tumor activity
IC50 (PANC-1 cells [2]): 0.05 µM
IC50 (MIA PaCa-2 cells): 0.04 µM
IC50 (TC-1 cells): 0.0147 ± 0.0028 µM
Ratio of IC50 in CCRF-CEM/dCK−/− to that in CCRF-CEM (CCRF-CEM/dCK−/− cells): 82,897
IC50 (CCRF-CEM/dCK−/− cells; Homo sapiens, CCRF-CEM, MTT, 72 h incubation, dCK deficient): 240 ± 29 µM
Ratio of IC50 in L1210 10K to that in L1210 wt (L1210 10K cells): 17,046
Ratio of IC50 values in L1210 10K cells (L1210 10K cells; IC50 of gemcitabine HCl divided by that of the nanoparticles): 1
IC50 (L1210 10K cells; Mus musculus, L1210, MTT, 72 h incubation, dCK deficient): 22.2 ± 3.7 µM
Time to kill 50% of PANC-1 cells (PANC-1 cells [3]): 116 h
